Results as given in PubChem BioAssay AID1996.
Converted amounts (≈) assume the structure as drawn.

details: buffer; pH 7.4; 200.0 µM

Compound	solubility kinetic
CN(C)CCSc1nc(-c2ccccc2)nc2c1CCCC2	17.9 µg/mL (≈ 57.1 µM)
CCCn1c(=O)c(C(=O)Nc2cc(C)ccn2)c(O)c2ccccc21	< 0.2 µg/mL
CC(C)c1ccc(C2NC(=O)c3ccccc3O2)cc1 (stereo not given)	1 µg/mL (≈ 3.74 µM)
O=C(COC(=O)CCC(=O)c1cccs1)Nc1ccccc1C(F)(F)F	> 57.8 µg/mL
Fc1ccccc1CN1CCCC(NC2CCC2)C1 (stereo not given)	36.9 µg/mL (≈ 141 µM)
CCCS(=O)(=O)Nc1c(C(=O)O)[nH]c2ccc(OC)cc12	46.3 µg/mL (≈ 148 µM)
O=C(NCc1cccnc1)C1CCC(c2ccc(Cl)cc2)CC1 (stereo not given)	14.9 µg/mL (≈ 45.3 µM)
O=C(NCc1ccco1)c1ccccc1O	22.9 µg/mL (≈ 105 µM)
O=C(NCCOc1ccccc1)C(=O)c1c[nH]c2ccccc12	0.9 µg/mL (≈ 2.92 µM)
COc1ccc(N2CC(C(=O)Nc3ccncc3)CC2=O)cc1 (stereo not given)	> 46.7 µg/mL
O=C(NCCc1ccc(Cl)cc1)c1ccc2nccnc2c1	4.8 µg/mL (≈ 15.4 µM)
COc1cccc2cc(C(=O)NCc3ccc(F)cc3)c(=N)oc12	1.7 µg/mL (≈ 5.21 µM)
N/C(=N\OC(=O)Nc1ccccc1)c1ncc([N+](=O)[O-])s1	3.8 µg/mL (≈ 12.4 µM)
CC1CC(C)(C)NC(=S)O1 (stereo not given)	> 23.9 µg/mL
CC(C)(C)CC(=O)NCCCN1CCOCC1	> 36.4 µg/mL
CCC(=O)NC(Cc1ccccc1)c1nc2ccccc2[nH]1 (stereo not given)	> 44 µg/mL
COc1cccc(C(=O)N(C)Cc2c(C)nn(C3CCS(=O)(=O)C3)c2C)c1 (stereo not given)	> 58.7 µg/mL
S=C(NCc1ccco1)N1CCN(c2ccccc2Cl)CC1	19.5 µg/mL (≈ 58.1 µM)
Cc1cccc2sc(NC(=O)Cn3c(C)csc3=O)nc12	5.1 µg/mL (≈ 16 µM)
O=C(Nc1ccc(-c2cnco2)cc1)c1ccccc1	< 0.3 µg/mL
O=C(NC(=S)NCc1ccccc1)c1cccc(Cl)c1	< 0.3 µg/mL
Brc1ccc(OCc2nc3ccccc3[nH]2)cc1	2.4 µg/mL (≈ 7.92 µM)
COc1cc(C2NC(=O)NC(C)=C2C(C)=O)cc(OC)c1OC (stereo not given)	38.7 µg/mL (≈ 121 µM)
Cn1ccnc1SCC(=O)c1c(N)n(C)c(=O)n(C)c1=O	41.5 µg/mL (≈ 134 µM)

Compound	solubility kinetic
O=C(O)/C=C\C(=O)NCc1cccnc1	> 30.9 µg/mL
CSCCC(NC(=O)COc1ccccc1)C(=O)N1CCCC(C)C1 (stereo not given)	> 54.7 µg/mL
CNc1snc(C)c1C(=O)OC(C)C(=O)Nc1cccc(C)c1 (stereo not given)	4.8 µg/mL (≈ 14.4 µM)
Cc1ccc(OCC(=O)NCCCNC(=O)c2cnccn2)cc1C	49.9 µg/mL (≈ 146 µM)
Cc1cc(C)cc(NC(=O)c2sc3nc(C)cc(C)c3c2N)c1	0.3 µg/mL (≈ 0.922 µM)
CCN1CCN(Cc2cc(=O)oc3ccc(C)cc23)CC1	> 43 µg/mL
Cc1cc(NC(=O)OC2CCCCC2)ccc1[N+](=O)[O-]	0.4 µg/mL (≈ 1.44 µM)
O=C(O)CCN1C(=O)S/C(=C\c2cccnc2)C1=O	> 41.7 µg/mL
O=C(CCN1C(=O)c2ccccc2C1=O)NCc1cccc(Cl)c1	32.4 µg/mL (≈ 94.5 µM)
CCOc1ccc(N(C)Cc2cc(=O)oc3ccc(OC)cc23)cc1	8.1 µg/mL (≈ 23.9 µM)
COc1ccc(CC(=O)OCC(=O)NC2CCCC(C)C2C)cc1 (stereo not given)	> 50 µg/mL
Cc1nn(C)c(C)c1NC(=O)CCl.Cl	> 35.7 µg/mL
O=C(Nc1cccc2cccnc12)c1ccc(Cl)cc1	< 0.3 µg/mL
O=C(O)c1ccc2c(=O)n(-c3ccc(F)cc3)c(=S)[nH]c2c1	> 47.4 µg/mL
O=C(Nc1cc(Cl)cc(Cl)c1)Nc1cnccn1	0.2 µg/mL (≈ 0.706 µM)
Cc1ccc(NC(=O)CN(C)C(=O)C2CCC2)cc1	> 39.1 µg/mL
CO/N=C/C=C1/N(C)c2ccccc2C1(C)C	19.4 µg/mL (≈ 84.2 µM)
CC(=O)NN1C(=O)c2ccccc2NC1c1ccc([N+](=O)[O-])o1 (stereo not given)	> 47.4 µg/mL
Cc1ccc(NC(=O)C2CCCC2)c(Br)c1	8.6 µg/mL (≈ 30.5 µM)
O=C(CCN1C(=O)S/C(=C\c2ccccc2)C1=O)N1CCCCC1	20.6 µg/mL (≈ 59.8 µM)
CN(C)C(=O)COC(=O)c1ccccc1NC(=O)c1ccco1	> 47.4 µg/mL
Cn1nccc1C(=O)N1CCOCC1	> 29.3 µg/mL
COc1ccc(C(N)=O)c(OCC(=O)Nc2cc(C)on2)c1	11 µg/mL (≈ 36 µM)
S=C(NCc1ccccc1)N1CCN(c2ccccc2)CC1	0.5 µg/mL (≈ 1.61 µM)

Compound	solubility kinetic
Nc1ccc2nc(NC(=O)C3CCCCC3)sc2c1	30.2 µg/mL (≈ 110 µM)
O=C(NC1CC1)c1cc2ccccc2o1	> 30.2 µg/mL
COc1ccccc1CN1CCc2c([nH]c3ccccc23)C1	33.1 µg/mL (≈ 113 µM)
NC1=NC(=Nc2cccc(S(N)(=O)=O)c2)c2ccccc21	> 45.1 µg/mL
CCOCCOC(=O)c1[nH]c2c(c1C)C(=O)CC(c1ccccc1)C2 (stereo not given)	2.3 µg/mL (≈ 6.74 µM)
COc1cccc(-c2nc3ccc(N4CCN(C)CC4)cc3[nH]2)c1	14.5 µg/mL (≈ 45 µM)
COc1ccc(Nc2oc(-c3ccccc3)nc2C#N)cc1	0.5 µg/mL (≈ 1.72 µM)
Cc1cccc(CN2C3=NCCCN3c3ccccc32)c1.Cl	> 47.1 µg/mL
CC(=O)Nc1ccccc1-c1nc2cc(C#N)c(C#N)cc2[nH]c1=O	> 49.4 µg/mL
Cl.O=C1CC[C@@]2(O)[C@H]3Cc4ccc(O)c5c4[C@@]2(CCN3CC2CC2)[C@H]1O5	> 56.7 µg/mL
CCn1cnnc1SCC(=O)Nc1ccccc1C(=O)NC1CC1	> 51.8 µg/mL
Cc1cccc(C)c1OCC(O)CN1CCCCC1.Cl (stereo not given)	43.4 µg/mL
O=S1(=O)c2cccc3cccc(c23)N1CCBr	17.7 µg/mL (≈ 56.7 µM)
CC(C(=O)NCc1cccnc1)c1ccc([N+](=O)[O-])cc1 (stereo not given)	> 42.8 µg/mL
O=C(O)CC(CC(=O)Nc1ccccc1C(=O)O)c1ccccc1 (stereo not given)	> 49.1 µg/mL
O=C(OCCN=C1NS(=O)(=O)c2ccccc21)c1cccc([N+](=O)[O-])c1	3 µg/mL (≈ 7.99 µM)
O=C(O)Cn1cc(/C=N/Nc2ccc([N+](=O)[O-])cn2)c2ccccc21	> 50.9 µg/mL
Clc1ccccc1Sc1ccc(-c2ccccn2)s1	< 0.7 µg/mL
CCCc1nnc(SCC(=O)N(CC)CC)n1CC1CCCO1 (stereo not given)	> 51.1 µg/mL
S=C(Nc1ccc(Cl)cc1)NC1CCCCC1	4.4 µg/mL (≈ 16.4 µM)
CC(c1ccccc1)N1CC(C(=O)Nc2ccc(F)cc2)CC1=O (stereo not given)	> 49 µg/mL
Cc1cccc(C(=O)OCC(=O)N2CCCC2=O)c1O	> 41.6 µg/mL
COc1ccc(Cc2nc(-c3ccncc3)no2)cc1	35.5 µg/mL (≈ 133 µM)
CCC1CCc2sc(C(=O)N3CCCN(C)CC3)cc2C1 (stereo not given)	37.5 µg/mL (≈ 122 µM)

Compound	solubility kinetic
CN(C)NC(=O)c1ccc([N+](=O)[O-])s1	> 32.3 µg/mL
C=CCN(CC=C)CC(=O)Nc1cccc(Oc2cnccn2)c1	> 48.7 µg/mL
O=C(O)c1nccnc1C(=O)NCc1csc2ccc(Cl)cc12	46.4 µg/mL (≈ 133 µM)
COc1cccc2cc(C(=O)N3CCCCCCC3)c(=O)oc12	> 47.3 µg/mL
O=C1Nc2ccccc2C1Cc1ccccc1 (stereo not given)	29 µg/mL (≈ 130 µM)
Cc1c(N)cc[n+](CC(=O)c2ccccc2)c1C.[Br-]	> 48.2 µg/mL
CC1CCCC(NC(=O)COC(=O)CCC(=O)c2cccs2)C1C (stereo not given)	> 52.7 µg/mL
Cc1cccc(N2C(=O)CN(Cc3ccccc3)C2=S)c1	10 µg/mL (≈ 33.7 µM)
COc1cccc(C(=O)NCCS(=O)(=O)N2CCCC2)c1	> 46.9 µg/mL
Cc1ccc(-c2nc(Cl)nc3ccccc23)cc1	1.7 µg/mL (≈ 6.67 µM)
Clc1ccc(C[n+]2cc(-c3ccc(Cl)cc3)n3c2CCC3)cc1.[Cl-]	> 57 µg/mL
O=S(=O)(NC1CC1)c1ccc(Cl)cc1	> 34.8 µg/mL
COc1ccc(CNc2ccc3c(c2)ncn3C)cc1OC	29.7 µg/mL (≈ 99.9 µM)
Cc1nc(NC(=O)c2c(-c3ccccc3)noc2C)sc1C(=O)N(C)C	> 55.6 µg/mL
O=C(CN1C(=O)NC2(CCc3ccccc32)C1=O)Nc1c(Cl)cccc1Cl (stereo not given)	> 60.6 µg/mL
O=c1[nH]c(Cc2cccc(C(F)(F)F)c2)nc2ccccc12	< 0.3 µg/mL
Cc1ccc(CN2CCCN(Cc3ccc(C)cc3)S2(=O)=O)cc1	< 0.4 µg/mL
Cc1ccc(NC(=O)Cc2ccccc2)cc1S(=O)(=O)N1CCOCC1	> 56.2 µg/mL
CCOC(=O)Cn1cc(Cl)c(=O)c(Cl)c1	35.8 µg/mL (≈ 143 µM)
COc1ccc(NC(=O)C2=C(C)NC(=O)NC2c2ccccc2[N+](=O)[O-])cc1 (stereo not given)	57.1 µg/mL (≈ 149 µM)
CC1CN(C(=O)c2ccc(NS(=O)(=O)c3ccc(F)cc3)cc2)CC(C)O1 (stereo not given)	> 58.9 µg/mL
O=C(c1cnccn1)N1CCN(S(=O)(=O)c2cccc(Cl)c2)CC1	> 55 µg/mL
CCNC(=O)CSc1nc2sccc2c(=O)n1-c1ccccc1	> 51.8 µg/mL
O=C(COC(=O)c1cc(=O)[nH]c(=O)[nH]1)Nc1cccc(Cl)c1	> 48.6 µg/mL

Compound	solubility kinetic
O=C(NCc1cccnc1)Nc1cccc(NC(=O)NCc2cccnc2)c1F	7.6 µg/mL (≈ 19.3 µM)
O=C1C(=O)N(Cc2cccs2)c2ccccc21	> 36.5 µg/mL
O=C(O)c1ccccc1NC(=O)N1CCOCC1	> 37.5 µg/mL
COc1ccccc1OCCNC(=O)c1ccc(C)o1	> 41.3 µg/mL
Cc1ccc(S(=O)(=O)N2CC(C)C(=O)CC2C)cc1 (stereo not given)	38.6 µg/mL (≈ 137 µM)
CCOC(=O)c1[nH]c(C)c(CC(C)C)c1C	24 µg/mL (≈ 107 µM)
OCC1(Cc2ccccc2)CCN(Cc2cc3ccccc3o2)CC1	> 50.3 µg/mL
Cc1ccc2c(=O)[nH]c(Nc3nc(C)cc(-c4ccccc4)n3)nc2c1	< 0.1 µg/mL
CCOC(=O)C1CCCN(CC(=O)Nc2cccc(C(C)=O)c2)C1 (stereo not given)	46 µg/mL (≈ 138 µM)
CC(=O)N(C)c1ccc(N=C2C(=O)Nc3ccccc32)cc1	> 44 µg/mL
O=C(NCCCCO)c1ccc2c3c(cccc13)CC2	39.2 µg/mL (≈ 146 µM)
N#Cc1ccc(N=c2ssnc2Cl)cc1	4.2 µg/mL (≈ 16.6 µM)
O=C(NNC1=NS(=O)(=O)c2ccccc21)c1ccccc1	> 45.2 µg/mL
CC(Oc1ccc(Cl)cc1Cl)C(=O)Nc1ccc(OCC(=O)O)cc1 (stereo not given)	> 57.6 µg/mL
CC(=O)N1CCc2cc(S(=O)(=O)N3CCCCC3C)ccc21 (stereo not given)	9.4 µg/mL (≈ 29.2 µM)
CC(=O)Nc1ccc(S(=O)(=O)Nc2cccc3cccnc23)cc1	> 51.2 µg/mL
CC(=O)NS(=O)(=O)c1ccc(NC(=O)c2cccc3ccccc23)cc1	53.9 µg/mL (≈ 146 µM)
O=C(CSc1nc2ccccc2c(=O)n1-c1ccccc1F)NC1CC1	> 55.4 µg/mL
Cc1ccc(C(=O)O)c(C(=O)Nc2nc3ccccc3s2)c1	> 46.9 µg/mL
FC(F)(F)c1ccc(Cl)c(-n2c(-c3ccco3)n[nH]c2=S)c1	> 51.9 µg/mL
Cc1cccc(NS(=O)(=O)c2ccc([N+](=O)[O-])cc2)n1	39.4 µg/mL (≈ 134 µM)
CC(CCc1ccccc1)NC(=O)C(=O)c1c[nH]c2ccccc12 (stereo not given)	0.9 µg/mL (≈ 2.81 µM)
Cc1cc(NC(=O)CN(C)C)c([N+](=O)[O-])cc1C	4.1 µg/mL (≈ 16.3 µM)
O=C(CCC(=O)Nc1cccc([N+](=O)[O-])c1)NCc1ccccc1	48.5 µg/mL (≈ 148 µM)
